This is an account of results in patent publication US20220305020A1, “THE USE OF PARAXANTHINE TO REDUCE EXERCISE-INDUCED MENTAL FATIGUE” (Ingenious Ingredients, LP, priority 2021, published 2022).

In test [1] the test system is trained runners. As to the kind of experiment: Berg-Wisconsin Card Sorting Test (BCST) before and after a mentally fatiguing 10-km run. The test is classed as in vivo, human. The conditions noted are these: 200 mg oral; after 10-km run compared to pre-exhaustive exercise. The protocol:
(§1) Trained runners from local running and triathlon clubs and races were recruited to participate in this study. Cognitive performance was assessed prior and after a mentally fatiguing endurance run. Eligibility criteria included healthy trained runners or triathletes between 18-40 years of age, current (>6 months) history of run training, and documented evidence that they averaged 8 minute/mile or less running pace during a recent competition (e.g., completing a 5-km road race or marathon). Qualified runners were invited to attend a familiarization session which provided an overview of the study and participants informed consent to participate in the study. A total of 32 individuals responded to study advertisements and were assessed for eligibility, 28 completed a familiarization session, 13 met eligibility requirements, agreed to participant in the study and were randomized into treatments. 1 subject dropped out of the study due to not complying with the study protocol. 12 subjects (11 males, 1 female) ultimately finished the trial. Volunteers visited the lab a total of five times including one familiarization session and four experimental sessions. During the familiarization session, participants were explained the study protocol, provided informed consent, answered a medical questionnaire, and had height, weight, resting heart rate, and resting blood pressure. Males then had body composition determined using dual energy X-ray absorptiometry (DXA) while females took a urine pregnancy test prior to the DXA scan to verify they were not pregnant. Participants then took each cognitive function test three times to familiarize them to the tests and establish test reliability. Volunteers practiced running on the treadmill to be used in the study at race pace. Once completed, the participants then performed a graded maximal cardiopulmonary (VO2 peak) treadmill test to determine peak heart rate and aerobic capacity. Participants were also asked to maintain usual eating habits and avoid new dietary supplements for the duration of the study. Participants were also asked to prepare for each testing session as they would a 10-km road race and refrain from vigorous physical activity, alcohol intake, and over-the-counter medications for 24 hours as well as fast for 8-12 hours prior to reporting to the lab. […] Upon arriving at the lab, participants had weight, resting heart rate, and blood pressure determined. Participants then completed a side effects questionnaire, performed two cognitive function tests, the Psychomotor Vigilance Task Test (PVTT), a test that objectively assesses fatigue-related changes in alertness, and the Berg-Wisconsin Card Sorting Test (BCST), donated a fasting blood sample, and then ingested 1 of 4 randomly assigned oral supplements (PRE). Supplements were administered in a double blind, randomized, and crossover manner using a Balanced Latin Square method to counterbalance the order of treatment administration. Treatments included (1) 400 mg of placebo (PL, wheat flour, Shandong Bailong Chuangyuan Bio-tec Co. Ltd., Dezhou, China); (2) 200 mg of PL+200 mg of Caffeine (CSPC Innovation Pharmaceutical Co. Ltd., Shi Jiazhuang, China); (3) 200 mg of PL+200 mg of […], Ingenious Ingredients, L.P. Lewisville, Tex., USA) or (4) 200 mg CA+200 mg of PX (CA+PX). Supplements were prepared using good manufacturing practices and certified for content. Supplements were the same size and appearance and packaged in generically labeled bottles for administration in a double-blind manner. Participants ingested one capsule with 8-ounces of water of the assigned treatment. Participants then rested for 15-minutes and repeated these tests. Volunteers then performed a 10-km run at their self-determined pace. Heart rate was obtained every kilometer during the run. Once completed, participants donated a venous blood sample. Participants then completed the cognitive function tests and the side effects questionnaire. […]

A further test deals with Male, 51. As to the kind of experiment: Uchida-Kraepelin test (UKT), serial calculation test of mental fatigue. The test is classed as in vivo, human. To be noted: one subject; for increase of mean performance during the first 15-minutes of UKT / mental fatigue (gradual decrease in performance) during the second 15-minutes of UKT: 200 mg of paraxanthine or 200 ng of caffeine. As for the experimental part: […], consumed 200 mg of paraxanthine or […] or placebo, separated by one-week wash-out, prior to performing a serial calculation test, the Uchida-Kraepelin test (UKT), that is designed to measure mental fatigue. The test has been standardized and is widely used in clinical psychology, psychiatry, and occupational mental health practice. In this test, a subject is instructed to perform serial calculation of random numbers printed on a paper for 15 minutes. After a 5-minute rest, another 15 minutes of calculations are performed. The test subject is instructed to compute as many calculations as possible. Performance is assessed by 1-minute intervals.

In another test the test system is BDNF. Put plainly: BDNF levels in young and old rats after paraxanthine supplementation. The class given is in vivo.
The next test deals with catalase. Put plainly: Catalase levels in young and old rats after paraxanthine supplementation. The class given is in vivo.
A further test has as its system glutathione. Put plainly: Glutathione levels in young and old rats after paraxanthine supplementation. The test is classed as in vivo.
The test system of test [2] is trained runners. As to the kind of experiment: Psychomotor Vigilance Task Test (PVTT) before and after a mentally fatiguing 10-km run. The class given is in vivo, human. The protocol: as §1
Where [3] appears, read: old rats, high-dose paraxanthine group.
[4] abbreviates: old rats, low-dose paraxanthine group.
Where [5] appears, read: young rats, high-dose paraxanthine group.
Where [6] appears, read: young rats, low-dose paraxanthine group.
The mark [7] stands for this setting: 200 mg oral, compared to pre-exhaustive exercise.

As to `Cn1c(=O)c2c(ncn2C)n(C)c1=O` [caffeine, reference compound], in the test with trained runners [1], the “increase in number of correct responses in the BCST” value is reported as “did not change”, the “increase in number of errors in the BCST” value came to 19.4%, the “increase in number of preservative errors (PAR rules) in the BCST” value turned out to be 23.3% and the “increase in number of preservative errors in the BCST” value is recorded as 15.9%. In the test on Male, 51, the “increase of mean performance during the first 15-minutes of UKT” value was 7% and the “mental fatigue (gradual decrease in performance) during the second 15-minutes of UKT” value was “failed to prevent metal fatigue”.
With `Cn1c(=O)[nH]c2ncn(C)c2c1=O` [paraxanthine], the BDNF levels is 863.40 ± 35.21 pg/mL in the test on BDNF (setting [3]), 776.40 ± 18.54 pg/mL in the test with BDNF (setting [4]), 939.15 ± 42.34 pg/mL in the test on BDNF (setting [5]) and 828.05 ± 35.03 pg/mL in the test on BDNF (setting [6]). Besides, the catalase levels in the test on catalase (setting [3]) was 36.84±1.68 U/mL; in the test with catalase (setting [4]), 29.34±1.50 U/mL; in the test on catalase (setting [5]) it was 38.91±2.65 U/mL; in the test on catalase (setting [6]), 30.24±1.58 U/mL. The “increase in number of correct responses in the BCST” value with trained runners [1] was found to be 5.7%. Further, the “reduction in number of errors in the BCST” value with trained runners [1] worked out at 1.5%. In the test with trained runners [1], the “reduction in number of preservative errors (PAR rules) in the BCST” value was 10.6%. Further, the “reduction in number of preservative errors in the BCST” value in the test on trained runners [1] is recorded as 4.6%. In addition, in the test on Male, 51, the “increase of mean performance during the first 15-minutes of UKT” value is 15%. In addition, the “mental fatigue (gradual decrease in performance) during the second 15-minutes of UKT” value in the test on Male, 51 is given as “prevented mental fatigue”. The “increase of mean performance during the second 15-minutes of UKT” value in the test on Male, 51 (200 mg of paraxanthine) is 21%. The glutathione levels in the test on glutathione (setting [3]) was determined as 27.49 ± 0.84 µg/mL; in the test with glutathione (setting [4]), 22.27 ± 1.00 µg/mL; in the test with glutathione (setting [5]) it was 34.41 ± 1.97 µg/mL; in the test with glutathione (setting [6]), 24.04 ± 1.74 µg/mL. Besides, the “greater improvement in reaction time compared to caffeine, trial 2” value with trained runners [2] (200 mg oral each, PVTT) is on record as 25%. Further, the “greater improvement in reaction time compared to caffeine, trial 10” value in the test on trained runners [2] (200 mg oral each, PVTT) was 44%. The “greater improvement in reaction time compared to caffeine, trial 20” value with trained runners [2] (200 mg oral each, PVTT) turned out to be 12%. For the same molecule, in the test with trained runners [2] (setting [7]), the “improvement of reaction time in the PVT Test, early trials (trial 2)” value is 7.3%. In addition, the “improvement of reaction time in the PVT Test, late trials (trial 20)” value in the test with trained runners [2] (setting [7]) worked out at 10.9%. Besides, the “improvement of reaction time in the PVT Test, middle trials (trial 10)” value in the test with trained runners [2] (setting [7]) is given as 10.9%.
